Holding throughout (test): growth of human tumour cells (NCI), 48 h
The test system of test [1] is CCRF-CEM leukemia.
Test [2] concerns HOP-92 NSCLC.
The subject of test [3] is HT29 colon.
The subject of test [4] is KM12 colon.
For test [5], the system named is M14 melanoma.
For test [6], the system named is NCI-H226 lung.
The test system of test [7] is SW-620 colon.
For test [8], the system named is UACC-257 melanoma.
Test [9] relates to UO-31 renal.
Test [10] has as its system RPMI-8226 leukemia.

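1) Cells in 96-well plates. 2) Compound, 48 h, 5 concentrations. 3) Linear interpolation between surrounding doses. 4) Unreached endpoint = highest concentration. At the GI50, growth is halved. TGI: concentration producing complete growth inhibition.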 Where only a bound is given, the exact number is not on record here.

Experimental findings from PubChem BioAssay (NCI) are described below.

On to `Cc1cc(S(=O)(=O)O)c(NC(=O)C(=O)Cc2cc(=O)oc3cc(O)ccc23)cc1Cl`, for which the TGI in test [1], in test [2], in [3], in test [4], in test [5] and in test [6] was greater than 100 µM each time. Besides, the TGI in test [7], in test [8] and in test [9] was greater than 100 µM throughout.

Regarding `CCC1CCc2c(c(=O)oc3c2cc(OC)c2cccc(OC)c23)C1` (configuration not stated), the TGI in test [1], in test [3], in [4], in [5], in [6] and in [10] was greater than 100 µM in each case. Also, the TGI in test [8] and in test [9] was greater than 100 µM in each case.

With `COc1ncc(-c2ccc3ncnc(Nc4cccc(Cl)c4)c3c2)cc1NS(=O)(=O)C1CC1`, the GI50 in test [1] is greater than 100 µM; in test [2], 0.394 µM; in [4], 38.9 µM; in [5] it was greater than 100 µM; in [10], greater than 100 µM; in test [7], greater than 100 µM. In addition, the TGI in [1], in [2], in test [4], in test [5], in test [10] and in [7] was greater than 100 µM in each case.

Turning to `CC1(C)CC(=O)C(C=NC(=O)c2ccncc2)=C(O)C1`, the TGI in test [1], in test [2], in test [3], in [4], in [5] and in test [6] was greater than 100 µM in each case. Moreover, the TGI in test [7], in test [8] and in [9] was greater than 100 µM in each case.

In the case of `Cc1nc(-[n+]2nc(-c3ccncc3)nn2-c2ccccc2)sc1C`, the TGI is greater than 100 µM in test [1]; greater than 100 µM in [3]; greater than 100 µM in [4]; greater than 100 µM in test [5]; 95.9 µM in [6]; greater than 100 µM in [10]. The TGI in test [7] was greater than 100 µM; in test [8], greater than 100 µM; in [9], 50.4 µM.

Consider `CCN1C(=O)N(CC)C2C1NN=c1s/c(=C3\C(=O)N(CC(C)(C)C)c4ccccc43)c(=O)n12` (configuration not stated), for which the GI50 is 3.62 µM in test [1]; 2.56 µM in [2]; 3.6 µM in [3]; 3.67 µM in [4]; 3.72 µM in test [5]; 5.71 µM in test [6]. The GI50 is 4.75 µM in [7], 13.1 µM in test [8] and 3.65 µM in [9]. For the same compound, the TGI was greater than 100 µM in test [1]; 16 µM in test [2]; 17 µM in [3]; 18.4 µM in test [4]; 20.7 µM in [5]; 28.1 µM in test [6]. The TGI is 21.9 µM in test [7], 37.9 µM in test [8] and 18.2 µM in test [9].

As for `O=P1(c2ccccc2)CCCCC1`, the TGI in test [1], in test [3], in test [4], in test [5], in test [6] and in test [10] was greater than 100 µM each time. For the same compound, the TGI in [8] and in [9] was greater than 100 µM each time.

As for `O=[N+]([O-])c1ccc(N2N=C(c3ccc(NCc4nc5ccccc5[nH]4)cc3)CC2c2ccco2)cc1` (configuration not stated), the TGI in [1] is greater than 100 µM; in test [2] it was greater than 100 µM; in test [3] it was 90.6 µM; in [4], 41.4 µM; in test [5], 61.3 µM; in test [10], 94.5 µM. Moreover, the TGI was greater than 100 µM in [7] and 55.4 µM in [9].

`Cc1nn(C(=O)Cc2ccccc2)c2c1C(c1ccc(Cl)cc1)SC(N)=N2` (configuration not stated): the TGI in test [1], in test [3], in [4], in test [5], in test [10] and in test [7] was greater than 100 µM in each case. Also, the TGI in test [8] was greater than 100 µM.

Consider `CN(C)CCNC(=O)c1ccc2nc3c(nc2c1)C(=O)c1ccccc1-3`, for which the TGI in [1] is 39.3 µM; in [2], greater than 100 µM; in [3], 81.5 µM; in [4] it was greater than 100 µM; in test [5], greater than 100 µM; in test [10], 63.3 µM. Further, the TGI in test [7], in test [8] and in [9] was greater than 100 µM throughout.

Regarding `CC1COC(C)(C)P(=O)(c2ccccc2)C1` (configuration not stated), the TGI in [1], in test [3], in test [4], in test [5], in [6] and in test [10] was greater than 100 µM in each case. Further, the TGI in test [7], in [8] and in test [9] was greater than 100 µM throughout.

With `CCn1c(=O)c2c(=O)c3c4c(oc3oc2c2ccccc21)C(=O)c1ccccc1C4=O`, the GI50 in test [1] was 1.18 µM; in test [4], greater than 100 µM; in test [5], greater than 100 µM; in [6], greater than 100 µM; in [10], 2.91 µM; in test [7] it was greater than 100 µM. Also, the GI50 in [8] and in test [9] was greater than 100 µM throughout. Besides, the TGI in [1], in test [4], in test [5], in test [6], in [10] and in [7] was greater than 100 µM each time. Moreover, the TGI in [8] and in test [9] was greater than 100 µM in each case.

On to `CCOP(=O)(OCC)OC1C=CC2CCC1C2` (configuration not stated), for which the TGI in [1] is greater than 100 µM; in test [3], greater than 100 µM; in test [4] it was greater than 100 µM; in [5] it was greater than 100 µM; in test [6], greater than 100 µM; in test [10], 54.2 µM. Further, the TGI in [8] and in [9] was greater than 100 µM each time.

Consider `Cc1ccc(S(=O)(=O)c2ccc(N)cc2)cc1`, for which the TGI in test [1], in [3], in test [4], in test [5], in [10] and in test [7] was greater than 100 µM each time. Also, the TGI in test [8] and in [9] was greater than 100 µM in each case.

`O=CN1CCN(CC(O)CN2CCCCC2)CC1` (configuration not stated): the TGI in test [1], in test [3], in test [4], in [5], in [6] and in [10] was greater than 100 µM in each case. Moreover, the TGI in test [7], in test [8] and in [9] was greater than 100 µM in each case.

In the case of `c1ccc2nc3c(nc2c1)sc1ccccc13`, the TGI was greater than 100 µM in [1]; greater than 100 µM in test [3]; greater than 100 µM in test [4]; greater than 100 µM in [5]; 66.8 µM in test [6]; greater than 100 µM in test [10]. The TGI in test [7], in test [8] and in test [9] was greater than 100 µM throughout.

As to `Cc1nc([N+](=O)[O-])cn1CC(=N)N`, the TGI in test [1], in test [3], in [5], in test [6], in test [10] and in test [7] was greater than 100 µM in each case. The TGI in [8] and in test [9] was greater than 100 µM in each case.

Turning to `O=C1NC(=O)C(c2cccc([N+](=O)[O-])c2)=C1Nc1cc(Cl)c(O)c(Cl)c1`, the GI50 in test [3] is greater than 25 µM; in [4] it was greater than 25 µM; in [5], greater than 25 µM; in test [10], greater than 25 µM; in test [7] it was greater than 25 µM; in test [9], greater than 17.6 µM. In addition, the TGI in [3], in test [4], in test [5], in test [10], in test [7] and in test [9] was greater than 25 µM in each case.

For the compound `COc1cc2c(c(OC)c1OC)-c1ncc3cc4c(cc3c1C2)OCO4`, the GI50 in test [4] was 18.6 µM; in [5], 45.5 µM; in test [10], 17.8 µM; in test [7] it was 18.6 µM; in test [9], 12.5 µM. Also, the TGI in test [4] is 80.1 µM; in test [5], greater than 100 µM; in test [10], greater than 100 µM; in test [7], 60.5 µM; in test [9], 74.6 µM.

Consider `CCCN1CN(C(C(=O)N[C@@H]2C(=O)N3C2SC(C)(C)C3C(=O)O)c2ccc(O)cc2)CSC1=S` (some centres not stated), for which the TGI in [1], in test [2], in [3], in test [4], in test [5] and in test [10] was greater than 100 µM in each case. In addition, the TGI in [8] and in test [9] was greater than 100 µM throughout.

With `Cc1ccc(NC(=O)CSc2nnc(-c3ccc(N=Cc4ccc(Cl)cc4)cc3)o2)cc1`, the TGI in test [1], in [3], in [4], in [5], in test [6] and in [10] was greater than 100 µM throughout. Also, the TGI in test [7], in [8] and in [9] was greater than 100 µM in each case.

With `CCCO/S(=N\S(=O)(=O)c1ccccc1)c1ccccc1[N+](=O)[O-]` (configuration not stated), the TGI in test [1], in test [3], in [4], in [5], in test [6] and in test [10] was greater than 100 µM each time. The TGI in test [7], in [8] and in test [9] was greater than 100 µM each time.

For the compound `COc1ccc(O)c(C(=O)c2ccc(C(=O)N[C@H]3CCCNC[C@@H]3NC(=O)c3ccncc3)cc2)c1F`, the GI50 was 0.721 µM in [1]; 16.3 µM in [3]; 3.1 µM in [4]; 6.43 µM in test [5]; greater than 25 µM in test [6]; 10.3 µM in [10]. In addition, the figures for the GI50 in [7], in test [8] and in test [9] were greater than 25 µM, greater than 25 µM and greater than 18.9 µM, respectively. Moreover, the TGI in [1] is 6.42 µM; in [3], greater than 25 µM; in test [4] it was greater than 16.5 µM; in test [5] it was greater than 22.4 µM; in [6], greater than 25 µM; in [10] it was greater than 25 µM. Also, the TGI in [7], in [8] and in test [9] was greater than 25 µM throughout.

As to `CC(=O)O[C@H]1CCC2[C@@H]3CCC4Nc5[nH]ncc5C[C@]4(C)C3CC[C@@]21C` (some centres not stated), the TGI is 66.5 µM in test [1]; greater than 100 µM in [3]; greater than 100 µM in test [4]; greater than 100 µM in test [5]; greater than 100 µM in test [6]; greater than 100 µM in [10]. In addition, the TGI was greater than 100 µM in test [7], 72.4 µM in test [8] and greater than 100 µM in [9].

For `COc1c[c]([Hg][O]C(C)=O)c(OC)c(NC(=O)CC(C)=O)[c]1[Hg][O]C(C)=O`, the GI50 in test [1] was 1.75 µM; in test [3] it was 4.21 µM; in test [4] it was greater than 43.2 µM; in test [5], 2.11 µM; in [6] it was 19.5 µM; in test [10] it was 4.22 µM. The figures for the GI50 in [8] and in test [9] were 2.73 µM and 19.2 µM, respectively. The TGI in test [1] was 5.43 µM; in test [3], 19.6 µM; in [4], greater than 62.1 µM; in test [5], 4.56 µM; in test [6] it was 42.9 µM; in test [10], 33.4 µM. The TGI in test [8] is 7.46 µM; in test [9], 33.3 µM.

Turning to `O=C(/C=C/c1ccccc1Cl)NC1C=Nc2ccc([N+](=O)[O-])cc2NC1` (configuration not stated), the TGI in [1] is 84.8 µM; in test [4] it was greater than 100 µM; in test [5], greater than 100 µM; in [6], greater than 100 µM; in [10], greater than 100 µM; in test [7], 18.2 µM. In addition, the TGI in test [8] and in test [9] was greater than 100 µM each time.

Regarding `O=Cc1ccc2c(c1-c1c(C=O)ccc3c1OCO3)OCO2`, the TGI in [1], in test [3], in test [4], in [5], in [6] and in [10] was greater than 100 µM each time. In addition, the TGI in test [7], in test [8] and in test [9] was greater than 100 µM in each case.
